Measurements taken from PubChem BioAssay (NCI).
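Method: 48-hour compound exposure of cells in 96-well plates, five concentrations, linear interpolation of endpoints. Definition used: TGI = concentration required for complete inhibition of growth.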

Key:
Experiment in all cases: NCI tumour cell line growth inhibition, 48 h
[1] = system: MALME-3M melanoma
[2] = system: SK-MEL-5 melanoma
[3] = system: HT29 colon
[4] = system: 786-0 renal
[5] = system: SK-MEL-28 melanoma
[6] = system: DLD-1 colon
[7] = system: KM12 colon
[8] = system: LOX IMVI melanoma
[9] = system: LXFL 529 NSCLC
[10] = system: DMS 114 small cell lung
[11] = system: UACC-62 melanoma
[12] = system: A498 renal
[13] = system: K-562 leukemia
[14] = system: SF-539 CNS
[15] = system: KM20L2 colon
[16] = system: HCC-2998 colon
[17] = system: SR leukemia
[18] = system: SN12C renal
[19] = system: HCT-116 colon
[20] = system: RPMI-8226 leukemia
[21] = system: OVCAR-5 ovarian
[22] = system: OVCAR-4 ovarian
[23] = system: SK-MEL-2 melanoma
[24] = system: IGROV1 ovarian
[25] = system: SW-620 colon
[26] = system: UO-31 renal
[27] = system: DMS 273 small cell lung
[28] = system: SNB-75 CNS
[29] = system: COLO 205 colon
[30] = system: CCRF-CEM leukemia
[31] = system: EKVX NSCLC
[32] = system: NCI-H226 lung
[33] = system: SF-295 CNS
[34] = system: HL-60(TB) leukemia
[35] = system: SF-268 CNS
[36] = system: UACC-257 melanoma
[37] = system: RXF 393 renal
[38] = system: SNB-78 CNS
[39] = system: M14 melanoma
[40] = system: A549 NSCLC
[41] = system: OVCAR-8 ovarian
[42] = system: M19-MEL melanoma
[43] = system: SNB-19 CNS
[44] = system: HOP-92 NSCLC
[45] = system: U251 CNS
[46] = system: TK-10 renal
[47] = system: HCT-15 colon
[48] = system: NCI-H23 lung
[49] = system: OVCAR-3 ovarian
[50] = system: MOLT-4 leukemia
[51] = system: HOP-18 NSCLC
[52] = system: HOP-62 NSCLC
[53] = system: NCI-H460 lung
[54] = system: SK-OV-3 ovarian
[55] = system: NCI/ADR-RES ovarian
[56] = system: DU-145 prostate
[57] = system: PC-3 prostate
[58] = system: MDA-N
[59] = system: NCI-H522 lung
[60] = system: BT-549 breast
[61] = system: T-47D breast
[62] = system: MDA-MB-231 breast
[63] = system: MDA-MB-435
[64] = system: MCF7 breast
[65] = system: HS 578T breast
[66] = system: CAKI-1 renal
[67] = system: ACHN renal
[68] = system: XF 498 CNS
[69] = system: RXF-631 renal

Cc1ccc(Oc2ccc(C)cc2N)cc1
TGI [1]: > 100 µM | TGI [2]: > 100 µM | TGI [3]: > 100 µM | TGI [4]: > 100 µM | TGI [5]: > 100 µM | TGI [6]: > 100 µM | TGI [7]: > 100 µM | TGI [8]: > 100 µM | TGI [9]: > 100 µM | TGI [10]: > 100 µM | TGI [11]: > 100 µM | TGI [12]: > 100 µM | TGI [13]: > 100 µM | TGI [14]: > 100 µM | TGI [15]: > 100 µM | TGI [16]: > 100 µM | TGI [17]: > 100 µM | TGI [18]: > 100 µM | TGI [19]: > 100 µM | TGI [20]: > 100 µM | TGI [21]: > 100 µM | TGI [22]: > 100 µM | TGI [23]: > 100 µM | TGI [24]: > 100 µM | TGI [25]: > 100 µM | TGI [26]: > 100 µM | TGI [27]: > 100 µM | TGI [28]: 73.3 µM | TGI [29]: > 100 µM | TGI [30]: > 100 µM | TGI [31]: > 100 µM | TGI [32]: > 100 µM | TGI [33]: > 100 µM | TGI [34]: > 100 µM | TGI [35]: > 100 µM | TGI [36]: > 100 µM | TGI [37]: > 100 µM | TGI [38]: > 100 µM | TGI [39]: > 100 µM | TGI [40]: > 100 µM | TGI [41]: > 100 µM | TGI [42]: > 100 µM | TGI [43]: > 100 µM | TGI [44]: 95.3 µM | TGI [45]: > 100 µM | TGI [46]: > 100 µM | TGI [47]: > 100 µM | TGI [48]: > 100 µM | TGI [49]: > 100 µM | TGI [50]: > 100 µM | TGI [51]: > 100 µM | TGI [52]: > 100 µM | TGI [53]: > 100 µM | TGI [54]: > 100 µM

O=[N+]([O-])c1cc(C=NC23CC4CC(CC(C4)C2)C3)ccc1Cl
TGI [1]: 42.5 µM | TGI [2]: 55.4 µM | TGI [3]: 39.8 µM | TGI [55]: 70.9 µM | TGI [4]: 41.2 µM | TGI [5]: 38 µM | TGI [7]: 55 µM | TGI [8]: 36.9 µM | TGI [11]: 20.9 µM | TGI [12]: > 100 µM | TGI [13]: > 43.6 µM | TGI [14]: 55.7 µM | TGI [16]: 75.1 µM | TGI [17]: 12.9 µM | TGI [18]: 35.2 µM | TGI [19]: 19.5 µM | TGI [20]: 16.8 µM | TGI [21]: > 100 µM | TGI [22]: 36.3 µM | TGI [23]: > 100 µM | TGI [24]: 47.5 µM | TGI [25]: 27.7 µM | TGI [26]: 15.8 µM | TGI [56]: > 60.4 µM | TGI [57]: 47.5 µM | TGI [28]: > 100 µM | TGI [29]: > 70.3 µM | TGI [30]: 7.97 µM | TGI [58]: 32.3 µM | TGI [31]: > 61.8 µM | TGI [32]: > 81.3 µM | TGI [33]: 96.9 µM | TGI [34]: 8.28 µM | TGI [59]: 32.7 µM | TGI [60]: 45.3 µM | TGI [35]: > 85.9 µM | TGI [36]: 39.6 µM | TGI [61]: 40.8 µM | TGI [37]: 37.2 µM | TGI [39]: 26.1 µM | TGI [40]: > 100 µM | TGI [62]: 24.7 µM | TGI [41]: > 90.9 µM | TGI [43]: > 58.5 µM | TGI [44]: 60.5 µM | TGI [45]: 41.6 µM | TGI [46]: > 87.2 µM | TGI [47]: 48.3 µM | TGI [48]: 42.8 µM | TGI [63]: 42.2 µM | TGI [49]: 33.9 µM | TGI [50]: 27 µM | TGI [64]: 27.9 µM | TGI [65]: > 94 µM | TGI [52]: 17.7 µM | TGI [53]: > 71 µM | TGI [66]: 18.7 µM | TGI [54]: > 100 µM | TGI [67]: 56.9 µM

COc1ccc(OC)c(N2CC(N)C2=O)c1 (stereo not given)
TGI [1]: > 100 µM | TGI [2]: > 100 µM | TGI [3]: > 100 µM | TGI [4]: > 100 µM | TGI [5]: > 100 µM | TGI [7]: > 100 µM | TGI [8]: > 100 µM | TGI [11]: > 100 µM | TGI [12]: > 100 µM | TGI [13]: > 100 µM | TGI [14]: > 100 µM | TGI [15]: > 100 µM | TGI [16]: > 100 µM | TGI [18]: > 100 µM | TGI [19]: > 100 µM | TGI [20]: > 100 µM | TGI [22]: > 100 µM | TGI [23]: > 100 µM | TGI [24]: > 100 µM | TGI [25]: > 100 µM | TGI [26]: > 100 µM | TGI [27]: > 100 µM | TGI [28]: > 100 µM | TGI [29]: > 100 µM | TGI [30]: > 100 µM | TGI [31]: > 100 µM | TGI [32]: > 100 µM | TGI [33]: > 100 µM | TGI [34]: > 100 µM | TGI [59]: > 100 µM | TGI [35]: > 100 µM | TGI [36]: > 100 µM | TGI [37]: > 100 µM | TGI [39]: > 100 µM | TGI [68]: > 100 µM | TGI [40]: > 100 µM | TGI [41]: > 100 µM | TGI [42]: > 100 µM | TGI [43]: > 100 µM | TGI [44]: > 100 µM | TGI [45]: > 100 µM | TGI [46]: > 100 µM | TGI [47]: > 100 µM | TGI [48]: > 100 µM | TGI [49]: > 100 µM | TGI [50]: > 100 µM | TGI [69]: > 100 µM | TGI [51]: > 100 µM | TGI [52]: > 100 µM | TGI [53]: > 100 µM | TGI [54]: > 100 µM | TGI [67]: > 100 µM
